Measured values published in PubChem BioAssay (NCI).
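Here, GI50 denotes the concentration required for 50% inhibition of growth. TGI: total growth inhibition.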

Assays:
Experiment in all cases: growth of human tumour cells (NCI), 384-well format
[1] = system: A498 renal
[2] = system: A549 NSCLC
[3] = system: ACHN renal
[4] = system: BT-549 breast
[5] = system: CAKI-1 renal
[6] = system: COLO 205 colon
[7] = system: DU-145 prostate
[8] = system: EKVX NSCLC
[9] = system: HCC-2998 colon
[10] = system: HCT-116 colon
[11] = system: HCT-15 colon
[12] = system: HL-60(TB) leukemia
[13] = system: HOP-62 NSCLC
[14] = system: HOP-92 NSCLC
[15] = system: HS 578T breast
[16] = system: HT29 colon
[17] = system: IGROV1 ovarian
[18] = system: KM12 colon
[19] = system: LOX IMVI melanoma
[20] = system: M14 melanoma
[21] = system: MALME-3M melanoma
[22] = system: MCF7 breast
[23] = system: MDA-MB-231 breast
[24] = system: MDA-MB-435 melanoma
[25] = system: MOLT-4 leukemia
[26] = system: NCI-H226 lung
[27] = system: NCI-H23 lung
[28] = system: NCI-H322M lung
[29] = system: NCI-H460 NSCLC
[30] = system: NCI-H522 lung
[31] = system: OVCAR-3 ovarian
[32] = system: OVCAR-4 ovarian
[33] = system: OVCAR-5 ovarian
[34] = system: OVCAR-8 ovarian
[35] = system: PC-3 prostate
[36] = system: RPMI-8226 leukemia
[37] = system: SF-268 CNS
[38] = system: SF-539 CNS
[39] = system: SK-MEL-28 melanoma
[40] = system: SK-MEL-5 melanoma
[41] = system: SK-OV-3 ovarian
[42] = system: SN12C renal
[43] = system: SNB-19 CNS
[44] = system: SNB-75 CNS
[45] = system: SR leukemia
[46] = system: TK-10 renal
[47] = system: U251 glioblastoma
[48] = system: UACC-257 melanoma
[49] = system: UACC-62 melanoma

## Nc1nc(Nc2ccc(C3CCC(N4CCOCC4)CC3)cc2)nn1-c1ccccn1 (stereo not drawn)
[1]
  GI50: 2.57 µM
  TGI: 5.75 µM
[2]
  GI50: 3.49 µM
  TGI: > 100 µM
[3]
  GI50: 2.84 µM
  TGI: 7.6 µM
[4]
  GI50: 1.67 µM
  TGI: 3.25 µM
[5]
  GI50: 3.08 µM
  TGI: > 100 µM
[6]
  GI50: 2.89 µM
  TGI: 5.83 µM
[7]
  GI50: 3.08 µM
  TGI: 8.5 µM
[8]
  GI50: 4.45 µM
  TGI: > 100 µM
[9]
  GI50: 2.97 µM
  TGI: 6.32 µM
[10]
  GI50: 2.42 µM
  TGI: 6 µM
[11]
  GI50: 2.01 µM
  TGI: 4.14 µM
[12]
  GI50: 1.35 µM
  TGI: 2.67 µM
[13]
  GI50: 2.58 µM
  TGI: 6.7 µM
[14]
  GI50: 4.97 µM
  TGI: 20.4 µM
[15]
  GI50: 1.89 µM
  TGI: 3.54 µM
[16]
  GI50: 1.82 µM
  TGI: 3.59 µM
[17]
  GI50: 3.06 µM
  TGI: 11.6 µM
[18]
  GI50: 0.291 µM
  TGI: > 100 µM
[19]
  GI50: 2.04 µM
  TGI: 3.63 µM
[20]
  GI50: 2.26 µM
  TGI: 3.89 µM
[21]
  GI50: 1.86 µM
  TGI: 4.1 µM
[22]
  GI50: 3.43 µM
  TGI: > 100 µM
[23]
  GI50: 4.56 µM
  TGI: > 100 µM
[24]
  GI50: 2.25 µM
  TGI: 6.2 µM
[25]
  GI50: 1.76 µM
  TGI: 3.19 µM
[26]
  GI50: 2.59 µM
  TGI: 6.49 µM
[27]
  GI50: 2.77 µM
  TGI: > 100 µM
[28]
  GI50: 4.03 µM
  TGI: 15 µM
[29]
  GI50: 3.17 µM
  TGI: 10.7 µM
[30]
  GI50: 3.11 µM
  TGI: 9.08 µM
[31]
  GI50: 3.13 µM
  TGI: 7.21 µM
[32]
  GI50: 7.22 µM
  TGI: 27.8 µM
[33]
  GI50: 2.44 µM
  TGI: 5.19 µM
[34]
  GI50: 5.06 µM
  TGI: > 100 µM
[35]
  GI50: 3.57 µM
  TGI: 11.9 µM
[36]
  GI50: 2.3 µM
  TGI: 3.78 µM
[37]
  GI50: 3.37 µM
  TGI: 13.2 µM
[38]
  GI50: 1.43 µM
  TGI: 3.02 µM
[39]
  GI50: 1.81 µM
  TGI: 3.34 µM
[40]
  GI50: 1.7 µM
  TGI: 3.23 µM
[41]
  GI50: 3.33 µM
  TGI: > 100 µM
[42]
  GI50: 1.05 µM
  TGI: 3.84 µM
[43]
  GI50: 3.68 µM
  TGI: 16.5 µM
[44]
  GI50: 2 µM
  TGI: 3.94 µM
[45]
  GI50: 0.255 µM
  TGI: 0.559 µM
[46]
  GI50: 5.32 µM
  TGI: 24.1 µM
[47]
  GI50: 2.02 µM
  TGI: 4.06 µM
[48]
  GI50: 1.83 µM
  TGI: 3.31 µM
[49]
  GI50: 2.03 µM
  TGI: 4.56 µM
